One data set has as its target CDK4 (Homo sapiens, UniProt P11802). Put plainly: Inhibition of the kinase CDK4. The data set is classed as biochemical. The method, then: (§1) Contrary to this, the known compound Quercetin does inhibit the kinases CDK4 and CDK6 (applied at a dose of 50 µM).
Data set [1] deals with normal proliferating T cells (d6 T cells). The method, then:
Apoptotic cell death was determined by DNA fragmentation after 48 hours.
Since proliferating cells are in general more susceptible to drug-induced apoptotic cell death, the T cells were activated through PHA stimulation and cultured for further 5 days under supplementation of IL-2 (so called d6 T cells).

A further data set deals with CDK6 (Homo sapiens, UniProt Q00534). Put plainly: Inhibition of the kinase CDK6. The data set is classed as biochemical. The method, then: as §1
The subject of data set [2] is RNAPII C-terminal domain Ser2 phosphorylation. As to the kind of experiment: Phenylephrine-induced phosphorylation of RNAPII in ventricular cardiac myocytes. The data set is classed as cell-based, rat. From the text:
To test Wogonin in hypertrophic conditions, ventricular cardiac myocytes from neonatal rats were isolated. Hypertrophy was induced by stimulating the cells (cardiomyocytes) with phenylephrine.

A further data set concerns leukemic CEM cells. Put plainly: Killing of leukemic CEM T-cells (DNA fragmentation). The data set is classed as cell-based.
Data set [3] has as its system ventricular cardiac myocytes. As to the kind of experiment: Tolerance of the compound by ventricular cardiac myocytes. The data set is classed as cell-based, rat. The settings on record: even at higher doses. From the text: To test Wogonin in hypertrophic conditions, ventricular cardiac myocytes from neonatal rats were isolated.
For another data set, the target named is T1, CDK9 (Homo sapiens, UniProt P50750).
T1 construct: endogenous in cells; host or cells: CEM
As to the kind of experiment: Duration of the inhibitory effect on CDK9 in CEM. The settings on record: dose of 50 μM in CEM. The data set is classed as cell-based.

The next data set addresses CDK2 (Homo sapiens, UniProt P24941). As to the kind of experiment: Inhibition of the cellular kinase CDK2. The data set is classed as biochemical.

Where two headings read alike, the source gives them in different places.

Sequence of CDK6 (Q00534 whole entry, species assumed, the tested form may be a part): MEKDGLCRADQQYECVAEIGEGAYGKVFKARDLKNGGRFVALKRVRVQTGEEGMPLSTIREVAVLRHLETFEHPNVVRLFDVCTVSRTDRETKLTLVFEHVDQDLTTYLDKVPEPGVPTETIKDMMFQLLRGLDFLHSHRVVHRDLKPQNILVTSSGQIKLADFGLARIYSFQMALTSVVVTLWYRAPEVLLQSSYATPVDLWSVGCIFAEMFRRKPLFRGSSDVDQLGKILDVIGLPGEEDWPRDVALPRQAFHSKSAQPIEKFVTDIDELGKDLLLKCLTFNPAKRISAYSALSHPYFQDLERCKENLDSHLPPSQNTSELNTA
Sequence of CDK4 (P11802 whole entry, species assumed): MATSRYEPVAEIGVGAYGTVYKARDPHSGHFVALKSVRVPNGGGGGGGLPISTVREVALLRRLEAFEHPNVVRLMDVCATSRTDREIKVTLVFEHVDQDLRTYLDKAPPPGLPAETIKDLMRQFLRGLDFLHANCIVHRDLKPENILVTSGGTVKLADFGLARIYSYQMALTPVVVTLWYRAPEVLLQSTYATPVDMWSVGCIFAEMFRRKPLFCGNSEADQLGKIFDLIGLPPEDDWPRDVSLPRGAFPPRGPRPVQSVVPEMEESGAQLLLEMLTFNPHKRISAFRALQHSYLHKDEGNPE
T1 sequence (P50750 whole entry): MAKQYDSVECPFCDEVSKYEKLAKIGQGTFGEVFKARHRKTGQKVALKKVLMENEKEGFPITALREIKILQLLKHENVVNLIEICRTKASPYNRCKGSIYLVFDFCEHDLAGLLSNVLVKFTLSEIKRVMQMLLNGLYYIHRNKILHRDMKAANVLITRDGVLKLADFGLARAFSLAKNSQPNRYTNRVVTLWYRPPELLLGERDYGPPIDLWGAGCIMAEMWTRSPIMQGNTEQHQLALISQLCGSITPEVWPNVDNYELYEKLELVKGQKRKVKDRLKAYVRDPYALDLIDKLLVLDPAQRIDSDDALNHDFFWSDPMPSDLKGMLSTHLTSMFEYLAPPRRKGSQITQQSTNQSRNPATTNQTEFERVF
T1 sequence (O60563 whole entry partner): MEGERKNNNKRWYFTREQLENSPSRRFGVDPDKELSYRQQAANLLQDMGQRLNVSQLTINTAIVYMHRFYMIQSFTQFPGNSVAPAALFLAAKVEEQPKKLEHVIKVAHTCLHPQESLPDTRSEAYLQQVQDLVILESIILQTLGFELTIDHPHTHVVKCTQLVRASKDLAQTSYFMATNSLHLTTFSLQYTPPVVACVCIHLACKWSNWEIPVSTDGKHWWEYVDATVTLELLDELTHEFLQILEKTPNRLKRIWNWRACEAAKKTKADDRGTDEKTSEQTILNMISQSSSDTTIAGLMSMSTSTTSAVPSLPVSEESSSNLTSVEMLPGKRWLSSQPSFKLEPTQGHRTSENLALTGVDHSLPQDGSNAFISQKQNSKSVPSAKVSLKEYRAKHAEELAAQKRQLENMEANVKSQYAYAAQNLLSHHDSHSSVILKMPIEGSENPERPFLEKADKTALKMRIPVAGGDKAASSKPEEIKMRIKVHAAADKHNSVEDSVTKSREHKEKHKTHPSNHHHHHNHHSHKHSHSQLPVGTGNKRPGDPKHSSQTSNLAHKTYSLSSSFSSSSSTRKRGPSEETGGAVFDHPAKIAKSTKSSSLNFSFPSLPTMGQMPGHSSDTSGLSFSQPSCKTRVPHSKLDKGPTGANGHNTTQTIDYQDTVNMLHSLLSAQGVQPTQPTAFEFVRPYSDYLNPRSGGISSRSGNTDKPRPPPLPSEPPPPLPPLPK
Protocol for CDK2: The amount of phosphorylated substrate was determined by Western Blot using phospho-specific antibodies.

As for `O=c1c(O)c(-c2ccc(O)c(O)c2)oc2cc(O)cc(O)c12` [Quercetin, reference compound], the “inhibition of CDK4 (in words)” value on CDK4 (applied at a dose of 50 μM) is recorded as “does inhibit”. Moreover, the DNA-fragmentation result in data set [1] (human, 48 h, 10 μM) is reported as “more than 15%”. Besides, at CDK6 (applied at a dose of 50 μM), the “inhibition of CDK6 (in words)” value is “does inhibit”.
For `CN1CC[C@H](c2c(O)cc(O)c3c(=O)cc(-c4ccccc4Cl)oc23)[C@H](O)C1` [Flavopiridol, reference compound], in data set [2] (no concentration or cell type given), the “inhibition of phosphorylation of the RNAPII C-terminal domain at Ser2 (in words)” value is reported as “inhibits phosphorylation”. Further, in the data set on leukemic CEM cells, the “concentration required to kill leukemic cells” value is listed as around 500 nM.
In the case of `COc1c(O)cc(O)c2c(=O)cc(-c3ccccc3)oc12` [Wogonin, 5,7-Dihydroxy-8-methoxy-flavone], the entries for the “inhibition of CDK4 (in words)” value on CDK4 (applied at a dose of 50 μM) and on CDK4 (no concentration given) were “do not inhibit” and “does not strongly inhibit”, respectively. Moreover, the “tolerance by the cells (in words)” value in data set [3] is reported as “well supported by the cells”. The “duration of inhibitory effect on CDK9 compared with Quercetin (in words)” value at CDK9 is “much longer inhibitory effect”. Also, in data set [1] (T-cells, 48 hours, dose of 10 μM), the DNA-fragmentation result is on record as “less than 5%”. Further, the “DNA-fragmentation compared with Quercetin (in words)” value in data set [1] (T-cells, 48 hours, doses of 10 μM, 50 μM and 100 μM) is given as “much less DNA-fragmentation”. Also, the “toxicity to normal T cells compared to other flavones tested (in words)” value in data set [1] (d6 T cells) is recorded as “particularly low toxicity”. For the same compound, the “toxicity to normal proliferating T cells (in words)” value in data set [1] (up to concentrations of 100 μM, in comparison to leukemic CEM cells) is given as “no or very low toxicity”. For the same compound, the “inhibition of phenylephrine-induced phosphorylation of RNAPII (in words)” value in data set [2] (neonatal rat cardiomyocytes, 50 μM in a solution) is “almost completely inhibited”. For the same compound, the “inhibition of CDK2 (in words)” value against CDK2 is on record as “does not strongly inhibit”. The “inhibition of CDK6 (in words)” value at CDK6 (applied at a dose of 50 μM) is “do not inhibit”; on CDK6 (no concentration given) it was “does not strongly inhibit”.
